The values that follow come from ChEMBL document CHEMBL5727716, “Guanidine derivative and medical use thereof” (2020).

One may read the IC50 as the point on the concentration scale where inhibition reaches its midpoint.

SMILES strings stand for the structures.

The assay concerns the target T1, Mucosa-associated lymphoid tissue lymphoma translocation protein 1 (Homo sapiens, UniProt Q9UDY8).
T1 sequence (Q9UDY8 whole entry): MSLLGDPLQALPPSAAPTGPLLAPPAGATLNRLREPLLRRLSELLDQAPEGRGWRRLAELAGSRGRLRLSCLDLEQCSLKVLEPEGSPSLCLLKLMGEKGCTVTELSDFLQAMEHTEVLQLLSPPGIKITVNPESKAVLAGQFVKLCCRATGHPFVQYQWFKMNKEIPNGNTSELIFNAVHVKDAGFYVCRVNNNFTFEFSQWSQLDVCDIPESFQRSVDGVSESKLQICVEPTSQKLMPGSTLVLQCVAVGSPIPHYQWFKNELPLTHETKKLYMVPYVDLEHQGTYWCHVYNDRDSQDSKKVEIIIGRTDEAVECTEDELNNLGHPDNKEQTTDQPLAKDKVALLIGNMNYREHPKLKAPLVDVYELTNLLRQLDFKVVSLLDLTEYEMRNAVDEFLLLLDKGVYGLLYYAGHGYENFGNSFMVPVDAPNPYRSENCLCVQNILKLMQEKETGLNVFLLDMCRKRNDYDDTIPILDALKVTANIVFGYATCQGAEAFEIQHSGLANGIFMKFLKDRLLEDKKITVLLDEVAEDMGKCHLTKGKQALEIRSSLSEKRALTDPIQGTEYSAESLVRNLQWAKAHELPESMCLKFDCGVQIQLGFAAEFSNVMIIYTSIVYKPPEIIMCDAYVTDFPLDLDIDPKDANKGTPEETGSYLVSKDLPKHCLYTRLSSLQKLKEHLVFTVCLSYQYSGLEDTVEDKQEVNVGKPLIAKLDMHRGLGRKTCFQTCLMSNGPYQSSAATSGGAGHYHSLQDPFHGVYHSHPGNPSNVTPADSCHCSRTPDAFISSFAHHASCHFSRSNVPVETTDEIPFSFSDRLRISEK
Kind of assay: Inhibition of Protease Activity Assay: Full-length cDNA of human MALT1 gene (GenBank accession No: AB026118.1) amplified by PCR was inserted in flame to a SalI site located downstream of GST gene in a pGEX6P3 vector (GE Healthcare Japan Corp.) to prepare a vector (hereinafter, referred to as a pGEX6P3-MALT1 vector). Subsequently, E. coli for protein expression (BL21-RIL-codon plus-DE3, Agilent Technologies, Inc.) was transformed with the pGEX6P3-MALT1 vector and then analyzed by ampicillin resistance screening and colony PCR to obtain an E. coli strain expressing recombinant GST fusion MALT1. Protein expression was induced with isopropyl-(3-thiogalactopyranoside. After the expression induction, E. coli precipitates were recovered by centrifugation from the E. coli culture solution, and the E. coli precipitates were homogenized and then centrifuged to obtain a supernatant. The supernatant was purified using GSTrap FF column (GE Healthcare Japan Corp.) to obtain recombinant GST fusion MALT1.B) Evaluation of Inhibition of Protease Activity of MALT1:To 89 μL of an enzyme solution ([…] GST fusion MALT1, 50 mmol/L MES, 150 mmol/L NaCl, 10% sucrose, 0.1% CHAPS, 10 mmol/L dithiothreitol, and 1 mol/L tri-ammonium citrate) per specimen, 1 μL of a test compound (DMSO-diluted solution) of each concentration was added to prepare a mixed solution. […].

As for `CCCC(=O)/N=C(\N)NCc1cnc(-c2ccc(Cl)cc2)c(-c2ccc(Cl)cc2)c1`, the IC50 amounted to 572 nM.
